Results on eleven compounds are retold here after US20260022143A1, “Cyclic Peptide Inhibitors of IL-23” (JANSSEN PHARMACEUTICA NV, priority 2022, published 2026).

Positions of bridges follow the written chain, without caps; N, C: chain ends. Non-standard residues stand in square brackets, D forms with d. Residues, ends and D or L forms follow the SMILES beside them. *: point of attachment. Trp(7-(3-AcNH-Ph)) = CC(=O)Nc1cccc(-c2cccc3c(C[C@H](N)C(=O)O)c[nH]c23)c1; Me3N+(CH2)2O(CH2)2O(CH2)2CO = C[N+](C)(C)CCOCCOCCC(=O)*; Trp(7-Me) = Cc1cccc2c(C[C@H](N)C(=O)O)c[nH]c12; dLys(Me3) = C[N+](C)(C)CCCC[C@@H](N)C(=O)O; 3Pal(5-Me) = Cc1cncc(C[C@H](N)C(=O)O)c1; 2Nal = N[C@@H](Cc1ccc2ccccc2c1)C(=O)O; AEF = NCCOc1ccc(C[C@H](N)C(=O)O)cc1; 3Pal = N[C@@H](Cc1cccnc1)C(=O)O; Ethyl(2-guanidino) = N=C(N)NCC*; Lys(Me) = CNCCCC[C@H](N)C(=O)O; Pen = CC(C)(S)[C@H](N)C(=O)O; Thp = NC1(C(=O)O)CCOCC1; PEG2 = NCCOCCOCCC(=O)O; X3 = C[N+](C)(C)CCCCC*; Sar = CNCC(=O)O; X58 = NCCCCC*

The data set in a line: Exposed Polar Surface Area (EPSA). The format is physicochemical. Particulars: SFC on Chirex 3014 column; sample 1 mM DMSO stock; read-out: EPSA. The gist of the method: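 SFC retention on a Chirex 3014 (S)-valine/(R)-1-(α-naphthyl)ethylamine column, 35 °C, CO2 with MeOH (20 mM ammonium formate) gradient 5–60% at 20%/min, 14 MPa outlet. Retention times converted to EPSA (Å^2) via linear calibration with 8 standards; samples from 1 mM DMSO stock, run in duplicate.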
Regarding `CC(=O)N(C)CCCC[C@@H]1NC(=O)[C@H](Cc2c[nH]c3c(C)cccc23)NC(=O)[C@H](CC(C)C)NC(=O)[C@H](CC(=O)N(C)C)NC(=O)[C@@H](NC(=O)CCOCCOCC[N+](C)(C)C)C(C)(C)SSC(C)(C)[C@@H](C(=O)N[C@@H](Cc2ccc(OCCCCC[N+](C)(C)C)cc2)C(=O)N[C@@H](Cc2ccc3ccccc3c2)C(=O)NC2(C(=O)N[C@@H](CCCCN(C)C(C)=O)C(=O)N[C@@H](CC(N)=O)C(=O)N[C@@H](Cc3cccnc3)C(=O)N(C)CC(=O)N(C)C)CCOCC2)NC1=O` [compound 493, cPEG3aCO-Pen(3)-N(N(Me)2)-L-7MeW-K(NMeAc)-Pen(3)-TMAPF-2Nal-THP-K(NMeAc)-N-3Pya-Sar-CON(Me)2] ({Me3N+(CH2)2O(CH2)2O(CH2)2CO}-[Pen]D(NMe2)L[Trp(7-Me)][Lys(Me)](Ac)[Pen]Y(X3)[2Nal][Thp][Lys(Me)](Ac)N[3Pal][Sar]-NMe2; disulfide 1-6), the EPSA is 132 A^2.

Take `CC(=O)N(C)CCCC[C@@H]1NC(=O)[C@H](Cc2c[nH]c3c(C)cccc23)NC(=O)[C@H]([C@@H](C)O)NC(=O)[C@H](CC(C)C)NC(=O)[C@@H](NC(=O)CCOCCOCC[N+](C)(C)C)C(C)(C)SSC(C)(C)[C@@H](C(=O)N[C@@H](Cc2ccc(OCCCCC[N+](C)(C)C)cc2)C(=O)N[C@@H](Cc2ccc3ccccc3c2)C(=O)NC2(C(=O)N[C@@H](CCCCN(C)C(C)=O)C(=O)N[C@@H](CC(N)=O)C(=O)N[C@@H](Cc3cccnc3)C(=O)N(C)CC(=O)N(C)C)CCOCC2)NC1=O` [compound 495, cPEG3aCO-Pen(3)-1-T-7MeW-K(NMeAc)-Pen(3)-TMAPF-2Nal-THP-K(NMeAc)-N-3Pya-Sar-CON(Me)2] ({Me3N+(CH2)2O(CH2)2O(CH2)2CO}-[Pen]LT[Trp(7-Me)][Lys(Me)](Ac)[Pen]Y(X3)[2Nal][Thp][Lys(Me)](Ac)N[3Pal][Sar]-NMe2; disulfide 1-6): the EPSA came to 160 A^2. For `CC(=O)NCCCC[C@@H]1NC(=O)[C@H](Cc2c[nH]c3c(C)cccc23)NC(=O)[C@H]([C@@H](C)O)NC(=O)[C@H](CC(N)=O)NC(=O)[C@@H](NC(=O)CCOCCOCC[N+](C)(C)C)C(C)(C)SSC(C)(C)[C@@H](C(=O)N[C@@H](Cc2ccc(OCCCCC[N+](C)(C)C)cc2)C(=O)N[C@@H](Cc2ccc3ccccc3c2)C(=O)NC2(C(=O)N[C@@H](CCC(=O)O)C(=O)N[C@@H](CC(N)=O)C(=O)N[C@@H](Cc3cncc(C)c3)C(=O)N(C)CC(N)=O)CCOCC2)NC1=O` [compound 505, cPEG3aCO-Pen(3)-N-T-7MeW-K(Ac)-Pen(3)-TMAPF-2Nal-THP-E-N-5MePyridinAla-Sar-CONH2] the value was 179 A^2. For `CC(=O)NCCCC[C@@H]1NC(=O)[C@H](Cc2c[nH]c3c(C)cccc23)NC(=O)[C@H]([C@@H](C)O)NC(=O)[C@H](CC(N)=O)NC(=O)[C@@H](NC(=O)[C@@H](CCCNC(=N)N)NC(=O)CCOCCOCC[N+](C)(C)C)C(C)(C)SSC(C)(C)[C@@H](C(=O)N[C@@H](Cc2ccc(OCCNC(=N)N)cc2)C(=O)N[C@@H](Cc2ccc3ccccc3c2)C(=O)NC2(C(=O)N[C@@H](CCC(=O)O)C(=O)N[C@@H](CC(N)=O)C(=O)N[C@@H](Cc3cncc(C)c3)C(=O)N(C)CC(N)=O)CCOCC2)NC1=O` [compound 508, cPEG3aCO-r-Pen(3)-N-T-7MeW-K(Ac)-Pen(3)-AEF(G)-2Nal-THP-E-N-5MePyridinAla-Sar-CONH2] ({Me3N+(CH2)2O(CH2)2O(CH2)2CO}-[dR][Pen]NT[Trp(7-Me)]K(Ac)[Pen]Y(Ethyl(2-guanidino))[2Nal][Thp]EN[3Pal(5-Me)][Sar]-NH2; disulfide 2-7), the EPSA worked out at 197 A^2. With `CC(=O)NCCCC[C@@H]1NC(=O)[C@H](Cc2c[nH]c3c(-c4cccc(NC(C)=O)c4)cccc23)NC(=O)[C@H]([C@@H](C)O)NC(=O)[C@H](CC(N)=O)NC(=O)[C@@H](NC(=O)[C@@H](CCCC[N+](C)(C)C)NC(C)=O)C(C)(C)SSC(C)(C)[C@@H](C(=O)N[C@@H](Cc2ccc(OCCCCC[N+](C)(C)C)cc2)C(=O)N[C@@H](Cc2ccc3ccccc3c2)C(=O)NC2(C(=O)N[C@@H](CCC(=O)O)C(=O)N[C@@H](CC(N)=O)C(=O)N[C@@H](Cc3cncc(C)c3)C(=O)N(C)CC(N)=O)CCOCC2)NC1=O` [compound 513, MeCO-k(Me)3-Pen(3)-N-T-7(3NAcPh)W-K(Ac)-Pen(3)-TMAPF-2Nal-THP-E-N-5MePyridinAla-Sar-CONH2] (Ac-[dLys(Me3)][Pen]NT[Trp(7-(3-AcNH-Ph))]K(Ac)[Pen]Y(X3)[2Nal][Thp]EN[3Pal(5-Me)][Sar]-NH2; disulfide 2-7) the figure was 224 A^2; with `CC(=O)NCCCC[C@@H]1NC(=O)[C@H](Cc2c[nH]c3c(C)cccc23)NC(=O)[C@H]([C@@H](C)O)NC(=O)[C@H](CC(N)=O)NC(=O)[C@@H](NC(=O)CCOCCOCC[N+](C)(C)C)C(C)(C)SSC(C)(C)[C@@H](C(=O)N[C@@H](Cc2ccc(OCCNC(=N)N)cc2)C(=O)N[C@@H](Cc2ccc3ccccc3c2)C(=O)NC2(C(=O)N[C@@H](CCC(=O)O)C(=O)N[C@@H](CC(N)=O)C(=O)N[C@@H](Cc3cncc(C)c3)C(=O)N(C)CC(N)=O)CCOCC2)NC1=O` [compound 514, cPEG3aCO-Pen(3)-N-T-7MeW-K(Ac)-Pen(3)-AEF(G)-2Nal-THP-E-N-5MePyridinAla-Sar-CONH2], 248 A^2; with `CC(=O)N(C)CCCC[C@@H]1NC(=O)[C@H](Cc2c[nH]c3c(C)cccc23)NC(=O)[C@H]([C@@H](C)O)NC(=O)[C@H](CC(=O)N(C)C)NC(=O)[C@@H](NC(=O)CCOCCOCCN)C(C)(C)SSC(C)(C)[C@@H](C(=O)N[C@@H](Cc2ccc(OCCCCCN)cc2)C(=O)N[C@@H](Cc2ccc3ccccc3c2)C(=O)NC2(C(=O)N[C@@H](CCCCN(C)C(C)=O)C(=O)N[C@@H](CC(N)=O)C(=O)N[C@@H](Cc3cccnc3)C(=O)N(C)CC(=O)N(C)C)CCOCC2)NC1=O` [compound 529, cPEG3AmCO-Pen(3)-N(N(Me)2)-T-7MeW-K(NMeAc)-Pen(3)-APF-2Nal-THP-K(NMeAc)-N-3Pya-Sar-CON(Me)2] (H-[PEG2][Pen]D(NMe2)T[Trp(7-Me)][Lys(Me)](Ac)[Pen]Y(X58)[2Nal][Thp][Lys(Me)](Ac)N[3Pal][Sar]-NMe2; disulfide 2-7), 161 A^2.

In the case of `CC(=O)NCCCC[C@@H]1NC(=O)[C@H](Cc2c[nH]c3c(-c4cccc(NC(C)=O)c4)cccc23)NC(=O)[C@H]([C@@H](C)O)NC(=O)[C@H](CC(N)=O)NC(=O)[C@@H](NC(=O)[C@@H](CCCC[N+](C)(C)C)NC(C)=O)C(C)(C)SSC(C)(C)[C@@H](C(=O)N[C@@H](Cc2ccc(OCCN)cc2)C(=O)N[C@@H](Cc2ccc3ccccc3c2)C(=O)NC2(C(=O)N[C@@H](CCC(=O)O)C(=O)N[C@@H](CC(N)=O)C(=O)N[C@@H](Cc3cncc(C)c3)C(=O)N(C)CC(N)=O)CCOCC2)NC1=O` [compound 535, MeCO-k(Me)3-Pen(3)-N-T-7(3NAcPh)W-K(Ac)-Pen(3)-AEF-2Nal-THP-E-N-5MePyridinAla-Sar-CONH2] (Ac-[dLys(Me3)][Pen]NT[Trp(7-(3-AcNH-Ph))]K(Ac)[Pen][AEF][2Nal][Thp]EN[3Pal(5-Me)][Sar]-NH2; disulfide 2-7), the EPSA stood at 190 A^2. For `CC(=O)NCCCC[C@@H]1NC(=O)[C@H](Cc2c[nH]c3c(-c4cccc(NC(C)=O)c4)cccc23)NC(=O)[C@H]([C@@H](C)O)NC(=O)[C@H](CC(N)=O)NC(=O)[C@@H](NC(=O)[C@@H](CCCNC(=N)N)NC(=O)CCOCCOCC[N+](C)(C)C)C(C)(C)SSC(C)(C)[C@@H](C(=O)N[C@@H](Cc2ccc(OCCN)cc2)C(=O)N[C@@H](Cc2ccc3ccccc3c2)C(=O)NC2(C(=O)N[C@@H](CCC(=O)O)C(=O)N[C@@H](CC(N)=O)C(=O)N[C@@H](Cc3cncc(C)c3)C(=O)N(C)CC(N)=O)CCOCC2)NC1=O` [compound 536, cPEG3aCO-r-Pen(3)-N-T-7(3NAcPh)W-K(Ac)-Pen(3)-AEF-2Nal-THP-E-N-5MePyridinAla-Sar-CONH2] ({Me3N+(CH2)2O(CH2)2O(CH2)2CO}-[dR][Pen]NT[Trp(7-(3-AcNH-Ph))]K(Ac)[Pen][AEF][2Nal][Thp]EN[3Pal(5-Me)][Sar]-NH2; disulfide 2-7) the value was 210 A^2; for `CC(=O)NCCCC[C@@H]1NC(=O)[C@H](Cc2c[nH]c3cccc(C)c23)NC(=O)[C@H]([C@@H](C)O)NC(=O)[C@H](CC(N)=O)NC(=O)[C@@H](NC(C)=O)C(C)(C)SSC(C)(C)[C@@H](C(=O)N[C@@H](Cc2ccc(OCCCCC[N+](C)(C)C)cc2)C(=O)N[C@@H](Cc2ccc3ccccc3c2)C(=O)NC2(C(=O)N[C@@H](CCCCNC(C)=O)C(=O)N[C@@H](CC(N)=O)C(=O)N[C@@H](Cc3cccnc3)C(=O)N(C)CC(N)=O)CCCC2)NC1=O` [compound 537, MeCO-Pen(3)-N-T-7MeW-K(Ac)-Pen(3)-TMAPF-2Nal-Acpx-K(Ac)-N-3Pya-Sar-CONH2], 163 A^2.

Turning to `CC(=O)NCCCC[C@@H]1NC(=O)[C@H](Cc2c[nH]c3c(-c4cccc(NC(C)=O)c4)cccc23)NC(=O)[C@H]([C@@H](C)O)NC(=O)[C@H](CC(N)=O)NC(=O)[C@@H](NC(=O)[C@@H](CCCNC(=N)N)NC(C)=O)C(C)(C)SSC(C)(C)[C@@H](C(=O)N[C@@H](Cc2ccc(OCCCCC[N+](C)(C)C)cc2)C(=O)N[C@@H](Cc2ccc3ccccc3c2)C(=O)NC2(C(=O)N[C@@H](CCC(=O)O)C(=O)N[C@@H](CC(N)=O)C(=O)N[C@@H](Cc3cncc(C)c3)C(=O)N(C)CC(N)=O)CCOCC2)NC1=O` [compound 540, MeCO-r-Pen(3)-N-T-7(3NAcPh)W-K(Ac)-Pen(3)-TMAPF-2Nal-THP-E-N-5MePyridinAla-Sar-CONH2] (Ac-[dR][Pen]NT[Trp(7-(3-AcNH-Ph))]K(Ac)[Pen]Y(X3)[2Nal][Thp]EN[3Pal(5-Me)][Sar]-NH2; disulfide 2-7), the EPSA is 183 A^2.
